Assay results taken from a melting point compilation (Tetko et al.; mined from patent text by program, amines drawn as free bases though some values may be those of a salt).

Structure (SMILES) | melting point [°C]
CC1(C)Oc2ccc(C#N)cc2C(C2=C(C(O)C(N)=O)C=CCC2)=C1O (centres undefined) | 235 to 237
CSc1c(C)nc(C(C)C)nc1O | 156
CCCN(Cc1ccc(-c2ccccc2-c2nnnn2C(c2ccccc2)(c2ccccc2)c2ccccc2)cc1)c1ncncc1C(=O)OCC | 100 to 103
CS(=O)(=O)OCC1CN(c2ccc3ccccc3c2)C(=O)O1 (centres undefined) | 169 to 172
CSC[C@H](NC(=O)C(C)(C)SC)C(=O)O | 120 to 121
CC(C)(C)OC(=O)N[C@@H](CC(N)=O)C(N)=O | 190 to 192
CC(C)C(=O)NCCCCN1CCN(c2csc3cc(F)ccc23)CC1 | 130 to 131
COc1cc2nc(COc3ccc(CC4SC(=O)NC4=O)cc3)n(C)c(=O)c2cc1OC (centres undefined) | 252
c1ccc(-c2nc(-c3ccc(CN4CCCCCC4)s3)n[nH]2)nc1 | 160 to 162
Cc1cc2c(cc1O)C(C)(C)CC(C)(c1cc(O)c(C)cc1O)O2 (centres undefined) | 190
Clc1cc(-c2ccnc(NCC3CCCO3)n2)ccn1 (centres undefined) | 74 to 75
CCCOC(=O)c1c(C)nc2cc(OC)c(OC)cc2c1-c1ccc(OC)c(OC)c1 | 153 to 155
BrCCCCCCOc1ccc(C2c3ccc(OCc4ccccc4)cc3OCC2c2ccccc2)cc1 (centres undefined) | 96.2 to 96.7
O=P(Oc1ccc(Oc2ccccc2)cc1)(Oc1ccc(Oc2ccccc2)cc1)c1ccccc1 | 92 to 93
CC1=C(C(=O)OC(C)C)C(c2cccc([N+](=O)[O-])c2)N(C(=O)N(C)C)C(=O)N1 (centres undefined) | 165 to 166
COc1cc(OC)c(-c2ccccc2)nn1 | 53 to 54
CS(=O)(=O)c1ccc(C(=O)c2c(S(C)(=O)=O)noc2C2CC2)c(Cl)c1 | 150
Cc1nc(N2CCN(Cc3ccccc3)C2=O)sc1C(=O)NCc1cccnc1 | 153 to 154
CN1CCCCC1CCc1ccccc1NC(=O)C#Cc1ccccc1 (centres undefined) | 104 to 106
Oc1c2c(nn1-c1nc3ccccc3[nH]1)CCc1ccccc1-2 | 205 to 206
c1ncn(-c2cc3cc[nH]c3cn2)n1 | 203 to 205
O=C(CCc1ccsc1)CC(=O)N1CCOCC1 | 81 to 84

The next lines start with the values.

melting point [°C] | Structure (SMILES)
172 to 175 | Nn1c(-c2ccccc2Cl)nnc1-c1ccccc1C(F)(F)F
149 | CC(C)Oc1cc(CCCNC(=O)NS(=O)(=O)c2ccccc2)n(Cc2ccc(Cl)cc2Cl)n1
125 to 130 | COc1cc(-c2ncn(C3CC3)c2-c2ccc(C(F)(F)F)cc2)cc(OC)c1OC
116 to 118 | CS(=O)(=O)c1ccc(C2=C(c3ccc(F)cc3)C(=O)C2(Cl)Cl)cc1
233 to 235 | CCOC(=O)CCn1c(=O)c(=O)[nH]c2cc(C(F)(F)F)c(-n3c(C)ccc3C)cc21
166 | CC(C)(C)OC(=O)COc1ccc2sc(C(=O)Nc3ccccc3NC(=O)OC(C)(C)C)cc2c1
156 to 158 | COC(=O)c1ccc(-c2nc(-c3ccc(C(F)(F)F)cc3)cs2)cc1
120 to 122 | CN(C)CC1CC(c2ccc(Cl)cc2)c2ccccc2O1 (centres undefined)
178 to 180 | O=C(Cc1c(C(=O)c2ccccc2)[nH]c2cc(Cl)ccc12)NCCO
285 to 287 | O=C(O)c1ccc2nc3n(c(=O)c2c1)CCC3=Cc1ccccc1
106 to 116 | CC(=O)Nc1ccc(Cl)cc1C(=O)c1c(F)cccc1F
122 to 123 | CC(C)c1ccc(N(Cc2ccc(Cl)cc2)C(=O)C2CCCc3ccccc32)cc1 (centres undefined)
302 | COc1cccc2c(=O)c(C(N)=O)c(N)oc12
103 | CSc1ccc(-c2nn(Cc3ccccc3)c(=S)cc2-c2ccc(Cl)cc2)cc1
106 to 108 | CCN(CC)c1ccc(S(=O)(=O)CCCCC(=O)O)cc1
135 to 137 | Oc1ccc(C(=C2SCCCS2)c2ccccc2)cc1
202 | NC(=O)N(C(=O)c1c(F)cccc1Cl)c1ccc(SC(F)(F)F)cc1
